Source: the supplement of paper PMC13380429

Key:
Conditions in all cases: 72 h
U2OS [1] = experiment: relative viability EC50 (midpoint between 100% and the lowest measured viability); higher = less toxic
Calu-3 [2] = experiment: as above
HepG2 [3] = experiment: as above
Caco-2 [4] = experiment: as above
Vero E6 [5] = experiment: as above
U2OS [6] = experiment: drug sensitivity score (DSS) for viability; higher = more toxic; extreme values may be limits of the assay
Calu-3 [7] = experiment: as above
HepG2 [8] = experiment: as above
Caco-2 [9] = experiment: as above
Vero E6 [10] = experiment: as above
U2OS [11] = experiment: cell viability relative to DMSO; higher = less toxic
Calu-3 [12] = experiment: as above
HepG2 [13] = experiment: as above
Caco-2 [14] = experiment: as above
Vero E6 [15] = experiment: as above

SMILES | relative viability EC50 (U2OS [1]) | relative viability EC50 (Calu-3 [2]) | relative viability EC50 (HepG2 [3]) | relative viability EC50 (Caco-2 [4]) | relative viability EC50 (Vero E6 [5]) | drug sensitivity score (U2OS [6]) | drug sensitivity score (Calu-3 [7]) | drug sensitivity score (HepG2 [8]) | drug sensitivity score (Caco-2 [9]) | drug sensitivity score (Vero E6 [10]) | cell viability (U2OS [11]; 1 nM) | cell viability (U2OS [11]; 10 nM) | cell viability (U2OS [11]; 100 nM) | cell viability (U2OS [11]; 1000 nM) | cell viability (U2OS [11]; 10000 nM) | cell viability (Calu-3 [12]; 1 nM) | cell viability (Calu-3 [12]; 10 nM) | cell viability (Calu-3 [12]; 100 nM) | cell viability (Calu-3 [12]; 1000 nM) | cell viability (Calu-3 [12]; 10000 nM) | cell viability (HepG2 [13]; 1 nM) | cell viability (HepG2 [13]; 10 nM) | cell viability (HepG2 [13]; 100 nM) | cell viability (HepG2 [13]; 1000 nM) | cell viability (HepG2 [13]; 10000 nM) | cell viability (Caco-2 [14]; 1 nM) | cell viability (Caco-2 [14]; 10 nM) | cell viability (Caco-2 [14]; 100 nM) | cell viability (Caco-2 [14]; 1000 nM) | cell viability (Caco-2 [14]; 10000 nM) | cell viability (Vero E6 [15]; 1 nM) | cell viability (Vero E6 [15]; 10 nM) | cell viability (Vero E6 [15]; 100 nM) | cell viability (Vero E6 [15]; 1000 nM) | cell viability (Vero E6 [15]; 10000 nM)
Cc1cnc(C(=O)N[C@H]2CCCCC/C=C\[C@@H]3C[C@@]3(C(=O)NS(=O)(=O)C3CC3)NC(=O)[C@@H]3C[C@@H](Oc4nc5ccccc5c5ccccc45)CN3C2=O)cn1 [paritaprevir] | > 10 µM | > 10 µM | > 10 µM | > 10 µM | > 10 µM | 0 | 0 | 0 | 0 | 0 | 105% | 105% | 107% | 94.8% | 96.4% | 110% | 108% | 107% | 99.9% | 102% | 108% | 96.8% | 105% | 94.7% | 109% | 110% | 94.8% | 103% | 95% | 99.1% | 99.8% | 93.9% | 97% | 94% | 98.8%
CCOc1ccc(NC(C)=O)cc1 [phenacetin] | > 10 µM | > 10 µM | > 10 µM | > 10 µM | > 10 µM | 0 | 0 | 0 | 0.1 | 0 | 100% | 94.6% | 90.2% | 90.3% | 97.8% | 90.3% | 90.8% | 99.5% | 94.3% | 104% | 95.8% | 77.6% | 90.8% | 93.7% | 84.1% | 105% | 81.8% | 101% | 110% | 85.9% | 109% | 102% | 108% | 96% | 102%
O=S1(=O)OC(c2ccc(O)cc2)(c2ccc(O)cc2)c2ccccc21 [phenolsulfonphthalein] | > 10 µM | > 10 µM | > 10 µM | > 10 µM | > 10 µM | 0 | 0 | 0 | 0.1 | 0 | 99.5% | 104% | 98% | 103% | 96.4% | 108% | 104% | 83.5% | 110% | 93.2% | 99.3% | 94.5% | 99.3% | 99.6% | 93.5% | 102% | 108% | 96.1% | 93.7% | 87.9% | 105% | 102% | 100% | 93.8% | 100%
O=C(O)CCCc1ccccc1 [phenylbutyrate] | > 10 µM | > 10 µM | > 10 µM | > 10 µM | > 10 µM | 0 | 0 | 0 | 0 | 0 | 99.9% | 105% | 104% | 103% | 103% | 94.6% | 112% | 113% | 109% | 105% | 111% | 81.8% | 105% | 104% | 96.1% | 79.8% | 100% | 90.4% | 97% | 107% | 106% | 95.6% | 104% | 93.2% | 106%
CC(=O)NS(=O)(=O)c1ccc(NC(=O)c2ccccc2C(=O)O)cc1 [phthalylsulfacetamide] | > 10 µM | > 10 µM | > 10 µM | > 10 µM | > 10 µM | 0 | 0 | 0 | 0 | 0 | 98.8% | 94.6% | 103% | 99.2% | 102% | 100% | 102% | 96.8% | 108% | 101% | 102% | 104% | 91.6% | 105% | 101% | 91.3% | 98.4% | 94.2% | 96.4% | 94.3% | 102% | 109% | 98.2% | 104% | 102%
COc1ccc(C(=O)NCc2cccnc2)cc1C(=O)NCc1cccnc1 [picotamide] | > 10 µM | > 10 µM | > 10 µM | > 10 µM | > 10 µM | 0 | 0 | 0 | 0 | 0 | 97.9% | 95% | 92.8% | 101% | 105% | 97.3% | 97.8% | 103% | 102% | 111% | 102% | 99.5% | 120% | 119% | 97% | 101% | 87.9% | 87% | 120% | 98.6% | 99.7% | 101% | 109% | 98.7% | 103%
COc1cccc2c1C(=O)c1c(O)c3c(c(O)c1C2=O)C[C@@](O)(C(=O)CO)C[C@@H]3O[C@H]1C[C@H](N)[C@H](O[C@@H]2CCCCO2)[C@H](C)O1 [pirarubicin] | 1.95 µM | 0.622 µM | 0.619 µM | 1.25 µM | 1.12 µM | 8 | 9.6 | 13.5 | 7.9 | 6.3 | 98.9% | 99.5% | 99.4% | 84.6% | 1.1% | 103% | 92.7% | 86.7% | 59.1% | 27.4% | 104% | 101% | 87.4% | 38.3% | 0.8% | 96.9% | 92.4% | 89.7% | 68.4% | 20.7% | 102% | 98.1% | 96.7% | 73.5% | 40.6%
O=C(O)c1cc(O)c2c3nc4ccccc4oc-3cc(=O)c2n1 [pirenoxine] | > 10 µM | > 10 µM | > 10 µM | > 10 µM | > 10 µM | 0 | 0 | 0 | 1.9 | 0 | 106% | 99.7% | 102% | 103% | 103% | 108% | 109% | 102% | 106% | 99.4% | 103% | 113% | 89.5% | 99.6% | 92.6% | 99.6% | 103% | 108% | 83.6% | 81.7% | 105% | 107% | 96.6% | 101% | 95%
CN1C(C(=O)Nc2ccccn2)=C(O)c2ccccc2S1(=O)=O [piroxicam] | > 10 µM | > 10 µM | > 10 µM | > 10 µM | > 10 µM | 0 | 0 | 0 | 0 | 0 | 98.5% | 94.9% | 99.3% | 95.9% | 101% | 99.8% | 95.5% | 101% | 96.8% | 105% | 92% | 107% | 92.5% | 105% | 115% | 93.6% | 96% | 104% | 100% | 100% | 93.1% | 101% | 94.4% | 93.5% | 114%
CC(C)NC(=N)NC(=N)Nc1ccc(Cl)cc1 [proguanil] | > 10 µM | > 10 µM | > 10 µM | > 10 µM | > 10 µM | 0 | 0 | 0 | 0 | 0 | 98% | 93.3% | 98.6% | 97.1% | 98.3% | 101% | 90.2% | 96% | 93.7% | 95.4% | 94.8% | 100% | 91.8% | 106% | 101% | 101% | 93.5% | 108% | 105% | 106% | 97% | 91.9% | 87.3% | 100% | 94.7%
CC(C)[N+](C)(CCOC(=O)C1c2ccccc2Oc2ccccc21)C(C)C [propantheline] | > 10 µM | > 10 µM | > 10 µM | > 10 µM | > 10 µM | 0 | 0 | 0 | 0 | 0 | 96.9% | 95.6% | 102% | 96.9% | 102% | 93.8% | 101% | 108% | 108% | 109% | 107% | 99% | 103% | 110% | 93.6% | 86.1% | 95.3% | 105% | 91.7% | 105% | 108% | 108% | 98.8% | 104% | 101%
